# Source: patent US8008487B2, “Substituted thieno[2,3-D]pyrimidines as fungicides” (priority 2004, dated 2011)
# Tests used:
# Assay type in all cases: in vivo
# Colletotricum lagenarium = assay: Cucumber Anthracnose (COLLLA), whole-plant fungicide test; settings: one-day protectant test; for pest or weed control at 200 ppm / pest or weed control at 100 ppm: Cucumis sativus, 24 h, read-out: COLLLA percent control of disease; for pest or weed control at 200 ppm: foliar; for pest or weed control at 100 ppm: 100 ppm (footnote a)
# Cochliobolus sativus = assay: Spot Blotch of Wheat (COCHSA), whole-plant fungicide test; settings: Bipolaris sorokiniana, foliar, 24 h, 200 ppm on foliage, one-day protectant test, read-out: COCHSA percent control of disease
# Description: The activity of the compounds as effective fungicides was determined by applying the compounds to plants and observing control of fungal disease. The compounds were formulated at 200 ppm in 10 vol. percent acetone plus 90 vol. percent Triton X water (deionized water 99.99 wt. percent+0.01 wt. percent Triton X100), giving a “formulated test compound.” In a few cases, compounds were formulated at 100, 75 or 8.3 ppm rather than 200 ppm in 10 vol. percent acetone plus 90 vol. percent Triton X water (deionized water 99.99 wt. percent+0.01 wt. percent Triton X100), giving a ‘formulated test compound’. The compounds were tested for ability to control plant diseases in a 1-day protectant test (1DP) or a 2-day curative test (2DC). Formulated test compounds were applied to plants using a turn table sprayer fitted with two opposing air atomization nozzles which delivered approximately 1500 L/ha of spray volume. Plants were inoculated with spores of the fungus the next day (1DP), then incubated in an environment conducive to disease development. In a few cases, the compounds were tested for ability to control plant disease in a two-day curative test. Plants were inoculated with spores of the fungus two days prior to compound application, and incubated in an environment conducive to disease development both before and after compound application (2DC). For all types of tests, disease severity was evaluated 4 to 28 days later, depending on the speed of disease development.
# Each pot contained 3-8 seedlings. These plants were sprayed until wet with the formulated test compound. On the following day, the leaves were inoculated with an aqueous spore suspension of Cochliobolus sativus and the plants were kept in high humidity for one to two days to permit spores to germinate and infect the leaf. The plants were then transferred to a greenhouse until disease developed on untreated control plants.
# The following table presents the activity of typical compounds of the present invention when evaluated in these experiments. The effectiveness of the test compounds in controlling disease was determined by assessing the severity of disease on treated plants, then converting the severity to percent control based on the level of disease on untreated, inoculated plants.
# TABLE 4: Activity of compounds as fungicides. Data are the level at which the given disease was controlled when the given compound was applied to the foliage of the plant at 200 ppm. In a few cases (noted in the table) the compound was applied to the plant at 100, 75 or 8.3 ppm. The plant was inoculated with the fungus one day after treatment. In a few cases (noted in the table) the plant was inoculated with the fungus two days before treatment.
# Leptosphaeria nodorum = assay: Glume Blotch of Wheat (LEPTNO), whole-plant fungicide test; settings: 200 ppm on foliage, one-day protectant test; for pest or weed control at 200 ppm: Parastagonospora nodorum, foliar, 24 h, read-out: LEPTNO percent control of disease
# [1] = test system: Puccinia recondita tritici; assay: Leaf Rust of Wheat (PUCCRT), whole-plant fungicide test; settings: one-day protectant test; for pest or weed control at 200 ppm / pest or weed control at 100 ppm: Puccinia recondita, 24 h, read-out: PUCCRT percent control of disease; for pest or weed control at 200 ppm: foliar; for pest or weed control at 100 ppm: 100 ppm (footnote a)
# Magnaporthe grisea = assay: whole plant or invertebrate; settings: for pest or weed control at 200 ppm: Pyricularia oryzae, in Oryza sativa, foliar, 24 h, read-out: PYRIOR percent control of disease, 200 ppm on foliage, rice, one-day protectant test
# Septoria tritici = assay: Speckled Leaf Blotch of Wheat (SEPTTR), whole-plant fungicide test; settings: Zymoseptoria tritici, foliar, 24 h, 200 ppm on foliage, one-day protectant test, read-out: SEPTTR percent control of disease
# Phytophthora infestans = assay: whole plant or invertebrate; settings: for pest or weed control at 200 ppm / pest or weed control at 100 ppm: Phytophthora infestans, in Solanum lycopersicum, 24 h; for pest or weed control at 200 ppm: foliar, read-out: PHYTIN percent control of disease, 200 ppm on foliage, tomato, one-day protectant test; for pest or weed control at 100 ppm: read-out: PHYTIN percent control of disease, 100 ppm (footnote a), tomato, one-day protectant test
# Erysiphe cichoracaerum = assay: Cucumber Powdery Mildew (ERYSCI), whole-plant fungicide test; settings: Erysiphe, foliar, 24 h, 200 ppm on foliage, one-day protectant test, read-out: ERYSCI percent control of disease
# [2] = test system: Erysiphe graminis f. sp. tritici; assay: Powdery Mildew of Wheat (ERYSGT), whole-plant fungicide test; settings: Blumeria graminis, 24 h, one-day protectant test, read-out: ERYSGT percent control of disease; for pest or weed control at 200 ppm: foliar, 200 ppm on foliage; for pest or weed control at 100 ppm: 100 ppm (footnote a)
Compound,pest or weed control at 200 ppm (Colletotricum lagenarium; 200 ppm on foliage) [%],pest or weed control at 200 ppm (Cochliobolus sativus) [%],pest or weed control at 200 ppm (Leptosphaeria nodorum) [%],pest or weed control at 200 ppm ([1]; 200 ppm on foliage) [%],pest or weed control at 200 ppm (Magnaporthe grisea) [%],pest or weed control at 200 ppm (Septoria tritici) [%],pest or weed control at 200 ppm (Phytophthora infestans) [%],pest or weed control at 200 ppm (Erysiphe cichoracaerum) [%],pest or weed control at 200 ppm [2] [%],COLLLA percent control of disease (Colletotricum lagenarium; 200 ppm on foliage),LEPTNO percent control of disease (Leptosphaeria nodorum),PUCCRT percent control of disease ([1]; 200 ppm on foliage),"PYRIOR percent control of disease (Magnaporthe grisea; 200 ppm on foliage, rice, one-day protectant test)","PHYTIN percent control of disease (Phytophthora infestans; 200 ppm on foliage, tomato, one-day protectant test)",pest or weed control at 100 ppm [2] [%],pest or weed control at 100 ppm (Colletotricum lagenarium) [%],pest or weed control at 100 ppm [1] [%],pest or weed control at 100 ppm (Phytophthora infestans) [%]
COCC(Nc1ncnc2scc(Cl)c12)c1ccccc1 (stereo not shown) [Compound 62],0 to 49,0 to 49,0 to 49,80 to 100,80 to 100,50 to 79,0 to 49,80 to 100,–,–,–,–,–,–,–,–,–,–
CC(Nc1ncnc2scc(Cl)c12)c1ccc(OCc2ccccc2)cc1 (stereo not shown) [Compound 2],0 to 49,0 to 49,80 to 100,80 to 100,80 to 100,80 to 100,80 to 100,–,80 to 100,–,–,–,–,–,–,–,–,–
CC(Nc1ncnc2scc(Cl)c12)c1ccc(OCc2ccc(OC(F)(F)F)cc2)cc1 (stereo not shown) [Compound 5],0 to 49,–,50 to 79,80 to 100,50 to 79,80 to 100,–,80 to 100,50 to 79,–,–,–,–,–,–,–,–,–
CC(Nc1ncnc2scc(Cl)c12)c1ccc2c(c1)OCO2 (stereo not shown) [Compound 61],0 to 49,50 to 79,80 to 100,80 to 100,50 to 79,50 to 79,0 to 49,80 to 100,–,–,–,–,–,–,–,–,–,–
Clc1csc2ncnc(NC3CCc4ccccc43)c12 (stereo not shown) [Compound 8],0 to 49,–,0 to 49,50 to 79,50 to 79,0 to 49,0 to 49,0 to 49,0 to 49,–,–,–,–,–,–,–,–,–
"CC(C)c1ccc(C(C)Nc2ncnc3scc(Cl)c23)cc1 (stereo not shown) [Compound 1, (5-Chlorothieno[2,3-d]pyrimidin-4-yl)-[1-(4-isopropylphenyl)ethyl]amine]",–,0 to 49,–,–,–,–,–,–,80 to 100,* (* is 0-49 percent control of disease),*** (*** is 80-100 percent control of disease),*** (*** is 80-100 percent control of disease),*** (*** is 80-100 percent control of disease),** (** is 50-79 percent control of disease),–,–,–,–
COc1ccc(C(C)Nc2ncnc3scc(F)c23)cn1 (stereo not shown) [Compound 77],–,–,–,–,–,–,–,–,–,–,–,–,–,–,0 to 49,50 to 79,80 to 100,80 to 100
"COc1ccc(C(C)Nc2ncnc3scc(F)c23)cc1 (stereo not shown) [Compound 76, (5-Fluorothieno[2,3-d]pyrimidin-4-yl)-[1-(4-methoxyphenyl)ethyl]amine]",–,–,–,–,–,–,–,–,–,–,–,–,–,–,0 to 49,50 to 79,80 to 100,80 to 100
CC(Nc1ncnc2scc(F)c12)c1ccc(OCC(F)(F)F)cc1 (stereo not shown) [Compound 78],–,–,–,–,–,–,–,–,–,–,–,–,–,–,80 to 100,80 to 100,80 to 100,80 to 100
Clc1csc2ncnc(NCCc3ccc(OCc4ccccc4)cc3)c12 [Compound 3],0 to 49,0 to 49,80 to 100,80 to 100,80 to 100,80 to 100,80 to 100,–,80 to 100,–,–,–,–,–,–,–,–,–
FC(F)(F)Oc1ccc(COc2ccc(CCNc3ncnc4scc(Cl)c34)cc2)cc1 [Compound 6],–,–,50 to 79,80 to 100,50 to 79,50 to 79,–,80 to 100,0 to 49,–,–,–,–,–,–,–,–,–
CC(Nc1ncnc2scc(Cl)c12)c1ccc(Cl)nc1 (stereo not shown) [Compound 28],–,0 to 49,80 to 100,80 to 100,80 to 100,80 to 100,–,–,0 to 49,–,–,–,–,–,–,–,–,–
CC(COc1cccc(Cl)n1)Nc1ncnc2scc(Cl)c12 (stereo not shown) [Compound 57],0 to 49,0 to 49,0 to 49,80 to 100,80 to 100,80 to 100,0 to 49,50 to 79,–,–,–,–,–,–,–,–,–,–
Clc1csc2ncnc(NC3CCCc4ccccc43)c12 (stereo not shown) [Compound 10],0 to 49,–,0 to 49,0 to 49,50 to 79,0 to 49,0 to 49,0 to 49,0 to 49,–,–,–,–,–,–,–,–,–
CC(=O)Nc1ccc(C(C)Nc2ncnc3scc(Cl)c23)cc1 (stereo not shown) [Compound 59],0 to 49,0 to 49,0 to 49,80 to 100,80 to 100,50 to 79,0 to 49,50 to 79,–,–,–,–,–,–,–,–,–,–
COc1ccc(C(C)Nc2ncnc3scc(Cl)c23)cc1F (stereo not shown) [Compound 66],0 to 49,–,0 to 49,80 to 100,80 to 100,–,50 to 79,80 to 100,–,–,–,–,–,–,80 to 100,–,–,–
COc1ccc(C(C)Nc2ncnc3scc(Cl)c23)cc1C (stereo not shown) [Compound 63],0 to 49,–,50 to 79,80 to 100,80 to 100,–,50 to 79,80 to 100,–,–,–,–,–,–,80 to 100,–,–,–
Clc1ccc(CCNc2ncnc3scc(Cl)c23)cn1 [Compound 65],0 to 49,–,0 to 49,80 to 100,0 to 49,–,80 to 100,80 to 100,–,–,–,–,–,–,0 to 49,–,–,–
CC(Nc1ncnc2scc(Br)c12)c1ccc(F)nc1 (stereo not shown) [Compound 60],80 to 100,0 to 49,0 to 49,80 to 100,80 to 100,0 to 49,0 to 49,80 to 100,–,–,–,–,–,–,–,–,–,–
CC(Nc1ncnc2scc(Cl)c12)c1ccc(NC=O)cc1 (stereo not shown) [Compound 58],50 to 79,0 to 49,0 to 49,80 to 100,80 to 100,50 to 79,0 to 49,0 to 49,–,–,–,–,–,–,–,–,–,–
